Molecules are shown by their SMILES. Values joined by “and” are separate entries in the source; they are usually repeats but may differ in a detail not shown here. Equal entries are not always repeated. Inconclusive results and toxic doses are left out.

The test system of the assay is L1210 leukemia ip in BDF1 mice, survival T/C. The assay can be described thus: NCI In Vivo Anticancer Drug Screen. Data for tumor model L1210 Leukemia (intraperitoneal) in B6D2F1 (BDF1) mice. As to conditions: higher = longer survival. Summed up:
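Mice bearing the transplanted tumor received compound or vehicle. Survival of the treated group was divided by that of the vehicle-treated control group to give the ratio.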

Where [1] appears, read: endpoint: mean survival time, dose: 100.0 mg/kg/injection, schedule: Q04DX003 (ip), vehicle: saline with Tween-80.
[2] abbreviates: endpoint: mean survival time, dose: 200.0 mg/kg/injection, schedule: Q04DX003 (ip), vehicle: saline with Tween-80.
Setting [3] is: endpoint: mean survival time, dose: 400.0 mg/kg/injection, schedule: Q04DX003 (ip), vehicle: saline with Tween-80.

Turning to `S=P(N1CC1)(N1CC1)N1CC1`, the T/C was 103 % of control and 104 % of control (endpoint: mean survival time, dose: 0.19 mg/kg/injection, schedule: Q01DX009 (ip), vehicle: saline); 106 % of control (endpoint: mean survival time, dose: 0.3 mg/kg/injection, schedule: Q01DX Z (ip), vehicle: carboxymethylcellulose (CMC)); 104 % of control and 111 % of control (endpoint: mean survival time, dose: 0.38 mg/kg/injection, schedule: Q01DX009 (ip), vehicle: saline); 101 % of control (endpoint: mean survival time, dose: 0.6 mg/kg/injection, schedule: Q01DX Z (ip), vehicle: carboxymethylcellulose (CMC)); 107 % of control and 120 % of control (endpoint: mean survival time, dose: 0.75 mg/kg/injection, schedule: Q01DX009 (ip), vehicle: saline); 95 % of control (2×) and 119 % of control (endpoint: mean survival time, dose: 1.0 mg/kg/injection, schedule: Q01DX001 (ip), vehicle: saline). Moreover, the T/C is, setting by setting: (endpoint: mean survival time, dose: 1.0 mg/kg/injection, schedule: Q01DX001 (oral), vehicle: saline) 98 % of control and 105 % of control; (endpoint: mean survival time, dose: 1.0 mg/kg/injection, schedule: Q01DX009 (ip), vehicle: saline) 98 % of control and 119 % of control; (endpoint: mean survival time, dose: 1.0 mg/kg/injection, schedule: Q04DX002 (ip), vehicle: saline) 102 % of control and 121 % of control; (endpoint: mean survival time, dose: 1.0 mg/kg/injection, schedule: Q04DX003 (ip), vehicle: saline) 96 % of control and 104 % of control and 116 % of control; (endpoint: mean survival time, dose: 1.2 mg/kg/injection, schedule: Q01DX Z (ip), vehicle: carboxymethylcellulose (CMC)) 109 % of control; (endpoint: mean survival time, dose: 1.25 mg/kg/injection, schedule: Q01DX Z (ip), vehicle: saline) 118 % of control. Also, the T/C by setting is: (endpoint: mean survival time, dose: 1.5 mg/kg/injection, schedule: Q01DX010 (oral), vehicle: carboxymethylcellulose (CMC)) 113 % of control; (endpoint: mean survival time, dose: 1.56 mg/kg/injection, schedule: Q01DX009 (ip), vehicle: saline) 102 % of control and 117 % of control; (endpoint: mean survival time, dose: 1.65 mg/kg/injection, schedule: Q01DX001 (ip), vehicle: saline) 104 % of control; (endpoint: mean survival time, dose: 2.0 mg/kg/injection, schedule: Q01DX001 (ip), vehicle: saline) 97 % of control and 103 % of control and 114 % of control; (endpoint: mean survival time, dose: 2.0 mg/kg/injection, schedule: Q01DX001 (oral), vehicle: saline) 98 % of control and 102 % of control; (endpoint: mean survival time, dose: 2.0 mg/kg/injection, schedule: Q01DX009 (ip), vehicle: saline) 108 % of control. Further, the T/C runs as follows: (endpoint: mean survival time, dose: 2.0 mg/kg/injection, schedule: Q04DX002 (ip), vehicle: saline) 101 % of control and 107 % of control; (endpoint: mean survival time, dose: 2.0 mg/kg/injection, schedule: Q04DX003 (ip), vehicle: saline) 102 % of control and 109 % of control and 116 % of control; (endpoint: mean survival time, dose: 2.4 mg/kg/injection, schedule: Q01DX Z (ip), vehicle: carboxymethylcellulose (CMC)) 121 % of control and 123 % of control; (endpoint: mean survival time, dose: 2.5 mg/kg/injection, schedule: Q01DX001 (ip), vehicle: saline) 110 % of control; (endpoint: mean survival time, dose: 2.5 mg/kg/injection, schedule: Q01DX Z (ip), vehicle: saline) 120 % of control; (endpoint: mean survival time, dose: 3.0 mg/kg/injection, schedule: Q01DX001 (ip), vehicle: saline) 106 % of control. Moreover, the T/C (endpoint: mean survival time, dose: 3.0 mg/kg/injection, schedule: Q01DX010 (oral), vehicle: carboxymethylcellulose (CMC)) is 115 % of control; the T/C (endpoint: mean survival time, dose: 3.6 mg/kg/injection, schedule: Q01DX Z (ip), vehicle: carboxymethylcellulose (CMC)) is 118 % of control; the T/C (endpoint: mean survival time, dose: 3.8 mg/kg/injection, schedule: Q01DX001 (ip), vehicle: saline) is 110 % of control; the T/C (endpoint: mean survival time, dose: 4.0 mg/kg/injection, schedule: Q01DX001 (ip), vehicle: saline) was 97 % of control and 106 % of control and 111 % of control; the T/C (endpoint: mean survival time, dose: 4.0 mg/kg/injection, schedule: Q01DX001 (oral), vehicle: saline) is 101 % of control and 105 % of control; the T/C (endpoint: mean survival time, dose: 4.0 mg/kg/injection, schedule: Q01DX009 (ip), vehicle: saline) was 160 % of control and 161 % of control and 191 % of control. Also, the T/C reads like this: (endpoint: mean survival time, dose: 5.0 mg/kg/injection, schedule: Q01DX Z (ip), vehicle: saline) 102 % of control; (endpoint: mean survival time, dose: 5.7 mg/kg/injection, schedule: Q01DX001 (ip), vehicle: saline) 111 % of control; (endpoint: mean survival time, dose: 6.0 mg/kg/injection, schedule: Q01DX001 (ip), vehicle: saline) 113 % of control and 123 % of control; (endpoint: mean survival time, dose: 6.25 mg/kg/injection, schedule: Q01DX009 (ip), vehicle: saline) 178 % of control; (endpoint: mean survival time, dose: 7.5 mg/kg/injection, schedule: Q01DX001 (ip), vehicle: saline) 106 % of control and 118 % of control; (endpoint: mean survival time, dose: 8.0 mg/kg/injection, schedule: Q01DX001 (oral), vehicle: saline) 105 % of control and 117 % of control. Further, the T/C by setting is: (endpoint: mean survival time, dose: 8.0 mg/kg/injection, schedule: Q01DX009 (ip), vehicle: saline) 107 % of control and 113 % of control; (endpoint: mean survival time, dose: 8.0 mg/kg/injection, schedule: Q04DX003 (ip), vehicle: saline) 150 % of control and 179 % of control; (endpoint: mean survival time, dose: 8.7 mg/kg/injection, schedule: Q01DX001 (ip), vehicle: saline) 161 % of control; (endpoint: mean survival time, dose: 11.0 mg/kg/injection, schedule: Q01DX001 (ip), vehicle: saline) 122 % of control; (endpoint: mean survival time, dose: 12.0 mg/kg/injection, schedule: Q01DX009 (ip), vehicle: saline) 95 % of control and 100 % of control; (endpoint: mean survival time, dose: 12.0 mg/kg/injection, schedule: Q01DX010 (oral), vehicle: carboxymethylcellulose (CMC)) 166 % of control. Moreover, the T/C (endpoint: mean survival time, dose: 12.5 mg/kg/injection, schedule: Q01DX009 (ip), vehicle: saline) is 118 % of control; the T/C (endpoint: mean survival time, dose: 14.0 mg/kg/injection, schedule: Q01DX001 (ip), vehicle: saline) was 109 % of control; the T/C (endpoint: mean survival time, dose: 15.0 mg/kg/injection, schedule: Q01DX001 (ip), vehicle: saline) was 163 % of control and 201 % of control; the T/C (endpoint: mean survival time, dose: 16.0 mg/kg/injection, schedule: Q01DX001 (oral), vehicle: saline) is 121 % of control; the T/C (endpoint: mean survival time, dose: 16.0 mg/kg/injection, schedule: Q04DX003 (ip), vehicle: saline) is 104 % of control; the T/C (endpoint: mean survival time, dose: 17.0 mg/kg/injection, schedule: Q01DX001 (ip), vehicle: saline) was 152 % of control and 155 % of control and 163 % of control. Moreover, the T/C was 163 % of control (endpoint: mean survival time, dose: 20.0 mg/kg/injection, schedule: Q01DX001 (ip), vehicle: saline); 191 % of control (endpoint: mean survival time, dose: 22.0 mg/kg/injection, schedule: Q01DX001 (ip), vehicle: saline); 150 % of control (endpoint: mean survival time, dose: 23.0 mg/kg/injection, schedule: Q01DX001 (ip), vehicle: saline); 152 % of control (endpoint: mean survival time, dose: 24.0 mg/kg/injection, schedule: Q01DX010 (oral), vehicle: carboxymethylcellulose (CMC)); 94 % of control (endpoint: mean survival time, dose: 32.0 mg/kg/injection, schedule: Q04DX002 (ip), vehicle: saline); 103 % of control (endpoint: median survival time, dose: 1.5 mg/kg/injection, schedule: Q01DX009 (ip), vehicle: distilled water + alcohol). The T/C is, setting by setting: (endpoint: median survival time, dose: 1.5 mg/kg/injection, schedule: Q01DX009 (ip), vehicle: other) 94 % of control; (endpoint: median survival time, dose: 4.0 mg/kg/injection, schedule: Q01DX009 (ip), vehicle: water) 151 % of control; (endpoint: median survival time, dose: 5.0 mg/kg/injection, schedule: Q01DX009 (ip), vehicle: water) 108 % of control; (endpoint: median survival time, dose: 6.0 mg/kg/injection, schedule: Q01DX009 (ip), vehicle: water) 110 % of control.

Turning to `Cc1c(Br)c(=O)[nH]c2c(C)cccc12`, the T/C by setting is: (endpoint: mean survival time, dose: 100.0 mg/kg/injection, schedule: Q01DX001 (ip), vehicle: saline) 98 % of control; (endpoint: mean survival time, dose: 200.0 mg/kg/injection, schedule: Q01DX001 (ip), vehicle: saline) 98 % of control; (endpoint: mean survival time, dose: 400.0 mg/kg/injection, schedule: Q01DX001 (ip), vehicle: saline) 96 % of control.

Regarding `CCC1(CC)CC1(Cl)Cl`, the T/C runs as follows: (endpoint: mean survival time, dose: 75.0 mg/kg/injection, schedule: Q01DX001 (ip), vehicle: acetone) 108 % of control; (endpoint: mean survival time, dose: 150.0 mg/kg/injection, schedule: Q01DX001 (ip), vehicle: acetone) 101 % of control.

Take `O=c1[nH]nnc2ccccc12`: the T/C by setting is: (endpoint: mean survival time, dose: 50.0 mg/kg/injection, schedule: Q01DX009 (ip), vehicle: saline) 90 % of control; (endpoint: mean survival time, dose: 100.0 mg/kg/injection, schedule: Q01DX009 (ip), vehicle: saline) 90 % of control; (endpoint: mean survival time, dose: 100.0 mg/kg/injection, schedule: Q04DX003 (ip), vehicle: alcohol) 98 % of control; (endpoint: mean survival time, dose: 200.0 mg/kg/injection, schedule: Q04DX003 (ip), vehicle: alcohol) 100 % of control.

As to `CN(C)C1=CC(=N/S(=O)(=O)c2ccccc2)/C(N(C)C)=CC/1=N/S(=O)(=O)c1ccccc1`, the T/C is 88 % of control under setting [1], 90 % of control under setting [2] and 87 % of control under setting [3].

With `Cc1ccc(S(=O)(=O)OCCCOS(=O)(=O)c2ccc(C)cc2)cc1`, the T/C was 96 % of control under setting [1], 102 % of control under setting [2] and 98 % of control under setting [3].

The record behind these values is PubChem BioAssay AID248 (DTP/NCI, 2004).
